Measured values published in ChEMBL document CHEMBL3992543, “New quinolinic derivatives as melatonergic ligands: Synthesis and pharmacological evaluation” (Eur J Med Chem, 2017).

Key:
[1] = biological target: T1, Melatonin receptor type 1A (Homo sapiens, UniProt P48039); experiment: Displacement of 2-[125I]iodomelatonin from human MT1 receptor expressed in HEK or CHO cell membranes after 120 mins
[2] = biological target: T2, Melatonin receptor type 1B (Homo sapiens, UniProt P49286); experiment: Displacement of 2-[125I]iodomelatonin from human MT2 receptor expressed in HEK or CHO cell membranes after 120 mins
T2 sequence (P49286 whole entry): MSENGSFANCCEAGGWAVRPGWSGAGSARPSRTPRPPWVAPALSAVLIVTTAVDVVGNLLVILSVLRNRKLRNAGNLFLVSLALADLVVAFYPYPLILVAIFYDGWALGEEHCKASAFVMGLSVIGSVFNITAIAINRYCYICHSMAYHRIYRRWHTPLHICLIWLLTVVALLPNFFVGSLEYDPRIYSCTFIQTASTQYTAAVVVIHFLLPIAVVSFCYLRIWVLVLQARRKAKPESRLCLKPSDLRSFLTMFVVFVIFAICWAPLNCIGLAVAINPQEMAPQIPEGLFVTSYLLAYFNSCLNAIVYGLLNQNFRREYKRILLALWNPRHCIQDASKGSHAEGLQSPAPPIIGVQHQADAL

[3] = biological target: T2, Melatonin receptor type 1B; experiment: Intrinsic activity at human MT2 receptor expressed in CHO cell membranes after 1 hr by [35S]GTPgammaS binding assay; type: functional
[4] = biological target: T1, Melatonin receptor type 1A; experiment: Intrinsic activity at human MT1 receptor expressed in CHO cell membranes after 1 hr by [35S]GTPgammaS binding assay; type: functional
Homo sapiens = species: Homo sapiens; experiment: Selectivity ratio of Ki for human MT1 receptor to Ki for human MT2 receptor

T1 sequence (P48039 whole entry): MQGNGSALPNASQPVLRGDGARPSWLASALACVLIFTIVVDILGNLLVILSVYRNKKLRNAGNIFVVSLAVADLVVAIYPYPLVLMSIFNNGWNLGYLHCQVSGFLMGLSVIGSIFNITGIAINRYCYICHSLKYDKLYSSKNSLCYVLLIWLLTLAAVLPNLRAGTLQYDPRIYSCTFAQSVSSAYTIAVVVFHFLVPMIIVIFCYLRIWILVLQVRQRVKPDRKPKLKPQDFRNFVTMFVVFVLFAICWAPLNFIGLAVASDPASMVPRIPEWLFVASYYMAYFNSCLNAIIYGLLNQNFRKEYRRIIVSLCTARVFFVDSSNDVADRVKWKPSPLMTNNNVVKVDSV

Structure (SMILES) | Ki [1] [nM] | Ki [2] [nM] | EC50 [3] [nM] | EC50 [4] [nM] | Ratio Ki (Homo sapiens)
COc1cnc2cccc(CCNC(=O)C3CC3)c2c1 | 124 | 26 |  |  | 
CNC(=S)NCCc1cccc2ccc(OC)nc12 | 2 | 0.1 | 0.1 | 90 | 
COc1ccc2cccc(CCNC(C)=O)c2n1 | 0.3 | 0.2 | 0.2 | 0.8 | 
COc1cnc2cccc(CCNC(C)=O)c2c1 | 60 | 4 |  |  | 
CCNC(=S)NCCc1cccc2ccc(OC)nc12 | 4 | 0.4 | 1.1 | 31 | 
COC(=O)NCCc1cccc2ncc(OC)cc12 | > 10000 | 430 |  |  | 
COc1cnc2cccc(CCNC(=O)CF)c2c1 | 29 | 6 |  |  | 
COc1ccc2cccc(CCNC(N)=O)c2n1 | 2 | 0.2 | 0.2 | 1620 | 
COc1ccc2ccc(CCNC(C)=O)cc2n1 | 58 | 22 |  |  | 
COc1ccc2cccc(CCC(=O)NCCF)c2n1 | 19 | 0.3 |  |  | 
CNC(=O)NCCc1cccc2ccc(OC)nc12 | 0.6 | 0.09 | 0.09 | 19 | 
COC(=O)NCCc1cccc2ccc(OC)nc12 | 7 | 0.3 | 0.4 | > 1000 | 
CNC(=S)NCCc1cccc2ncc(OC)cc12 | > 10000 | 250 |  |  | 
COc1cnc2cccc(CCNC(N)=O)c2c1 | 315 | 40 |  |  | 
CCNC(=S)NCCc1cccc2ncc(OC)cc12 | 690 | 550 |  |  | 
CNC(=O)CCc1cccc2ccc(OC)nc12 | 8 | 0.3 | 0.7 | 65 | 27
COc1ccc2cccc(CCC(=O)NC3CC3)c2n1 | 34 | 0.5 |  |  | 86
CCNC(=O)NCCc1cccc2ncc(OC)cc12 | 575 | 73 |  |  | 
CCNC(=O)NCCc1cccc2ccc(OC)nc12 | 0.8 | 0.09 | 0.2 | 9.5 | 
